For this experiment, the target named is EAV nsp9 (Equine arteritis virus Bucyrus, UniProt P19811). Put plainly: covalent labelling, tryptic digest and nano-LC-MS/MS.

SMILES strings stand for the structures.

EAV nsp9, sequence (P19811 1678-2370): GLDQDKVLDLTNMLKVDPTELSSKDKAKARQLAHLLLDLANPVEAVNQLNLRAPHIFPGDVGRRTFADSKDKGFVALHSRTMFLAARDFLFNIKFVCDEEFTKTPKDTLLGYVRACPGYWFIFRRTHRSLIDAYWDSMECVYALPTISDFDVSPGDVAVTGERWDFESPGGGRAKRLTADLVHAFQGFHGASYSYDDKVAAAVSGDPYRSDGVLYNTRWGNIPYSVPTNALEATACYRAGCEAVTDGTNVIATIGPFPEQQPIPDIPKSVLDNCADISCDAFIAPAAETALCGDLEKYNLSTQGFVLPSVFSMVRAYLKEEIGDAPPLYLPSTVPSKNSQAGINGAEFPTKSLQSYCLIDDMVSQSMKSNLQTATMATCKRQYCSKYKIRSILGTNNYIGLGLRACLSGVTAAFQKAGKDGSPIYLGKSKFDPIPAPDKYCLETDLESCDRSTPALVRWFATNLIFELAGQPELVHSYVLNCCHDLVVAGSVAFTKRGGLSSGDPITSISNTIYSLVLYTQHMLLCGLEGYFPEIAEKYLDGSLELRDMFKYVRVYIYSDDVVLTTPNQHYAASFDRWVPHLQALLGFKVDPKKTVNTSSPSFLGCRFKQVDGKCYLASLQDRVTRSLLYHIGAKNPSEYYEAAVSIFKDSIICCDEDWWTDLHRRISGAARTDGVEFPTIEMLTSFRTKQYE

For `Nc1nc2c(ncn2[C@@H]2O[C@H](COC(=O)c3ccc(S(=O)(=O)F)cc3)[C@@H](O)[C@H]2O)c(=O)[nH]1` [FSBG, 5′-(4-fluorosulfonylbenzoyl)guanosine], the “covalent labelling, tryptic digest and nano-LC-MS/MS” value was “seven modified peptides representing five distinct nsp9 regions could be assigned”.
